{
  "source": "patent US20230190687A1",
  "about": "“SODIUM BUTYRATE FOR USE IN THE PREVENTION OR TREATMENT OF RHINOVIRUS INFECTION” (priority 2020, published 2023)",
  "key": {"HRV1B Rhinovirus": {"test_system": "HRV1B Rhinovirus", "experiment": "Conditioned media of treated THP-1 macrophages incubated with HRV1B Rhinovirus; measurable live virus titrated", "type": "cell-based", "details": "then incubated with HRV1B, compared with control (distilled water), n=3", "experimental": "With reference to FIG. 1, an experiment was carried out to treat leukocytes (the human monocytic THP-1 macrophage cell line differentiated into macrophages) with sodium butyrate, Vitamin D, or with a combination of sodium butyrate and Vitamin D.\nThe leukocyte cells were incubated for a period of time to allow them to release proteins into the surrounding cell culture media (referred to as ‘conditioned media’). The conditioned media was then incubated with HRV1B Rhinovirus. The leukocyte cells were incubated with a solution comprising 0.5 mM sodium butyrate, a solution comprising 0.5 mM Vitamin D, and with a solution comprising both 0.5 mM sodium butyrate and 0.5 mM Vitamin D.\nThe data shown is an average of n=3 independent biological replicates (the titration is an average of ten fold reductions quantified over the three replicates)."}, "influenza infection": {"test_system": "influenza infection", "details": "exogenous LL-37, mouse models of influenza infection; Barlow et al 2011; cited from earlier work"}, "Rhinovirus": {"test_system": "Rhinovirus", "details": "exogenous LL-37, cell models; Casanova et al 2020; cited from earlier work"}},
  "data": [
    {"compound": "CCCC(=O)[O-].[Na+]", "note": "[sodium butyrate]", "values": [
      {"measurement": "reduction in measurable live virus", "setting": "HRV1B Rhinovirus; conditioned media of THP-1 macrophages incubated with 0.5 mM sodium butyrate", "result": "75-80%"}
    ]},
    {"compound": "LL-37: a human member of the cathelicidin family (LLGDFFRKSKEKIGKEFKRIVQRIKDFLRNLVPRTES; Antibacterial peptide LL-37; UniProt P49913 134-170, looked up)", "values": [
      {"measurement": "inflammation", "setting": "influenza infection", "result": "decrease inflammation"},
      {"measurement": "survival rates", "setting": "influenza infection", "result": "enhanced survival rates"},
      {"measurement": "Rhinovirus induced inflammatory cytokine release", "setting": "Rhinovirus", "result": "reduce Rhinovirus induced inflammatory cytokine release"}
    ]},
    {"compound": "Vitamin D", "values": [
      {"measurement": "reduction in measureable live virus (in words)", "setting": "HRV1B Rhinovirus; conditioned media of THP-1 macrophages incubated with 0.5 mM Vitamin D, or 0.5 mM sodium butyrate and 0.5 mM Vitamin D", "result": "significant reduction"}
    ]}
  ]
}
